Results taken from patent publication US5753615A, “Neuropeptides and their use as insecticides” (Queen Mary and Westfield College, priority 1993, dated 1998).
Non-standard residues stand in square brackets, D forms with d. No end group written: not given here. pGlu = O=C1CC[C@@H](C(=O)O)N1

Key:
[1] = system: corpora allata of the cockroach Diploptera punctata; assay type: cell-based
Protocol: Thus, it causes maximum inhibition of JH at a concentration of 1 nM, with a 50% inhibition (ED50) being achieved at 0.1 nM.

[2] = system: corpora allata of the cockroach Diploptera punctata; details: given 'in comparison'; known allatostatins of the literature; test system not restated; cited from earlier work

Substance | 50% inhibition (ED50) of JH production [1] [nM] | ED50 (inhibition of JH production), comparison values [2] [nM]
GPPYDFGM-NH2 [Callatostatin 5, Gly-Pro-Pro-Tyr-Asp-Phe-Gly-Met-NH2] | 0.1 | 
[pGlu]VRFRQCYFNPISCF-OH (cysteine pairing not given here) [allatostatin of Manduca sexta] |  | 2
